Patent US20110152267A1, “Compositions and Methods for Treating Hyperproliferative Disorders” (Texas Tech University System, priority 2009, published 2011)

Tests used:
Format in all cases: cell-based, human
[1] = system: CHLA-266 primitive neuroectodermal tumor (PNET) cell line; experiment: DIMSCAN cytotoxicity, fenretinide + L-threo-sphinganines 3:1 (Example B9); settings: 96 h
Experimental: (§1) Cytotoxicity Assay—Once again, cytotoxicity is determined using the DIMSCAN assay system (R. Proffitt et al., Cytometry 24, 204-213 (1996); T. Frgala et al., Mol Cancer Ther. 6:886-97, 2007). The system employs digital imaging microscopy to quantify viable cells, which selectively accumulate fluorescein diacetate to become brightly fluorescent. The system is capable of measuring cytotoxicity over a 4-5 log dynamic range by quenching the residual fluorescence of dead and dying cells with eosin Y and quantifying the total fluorescence of viable cells using digital thresholding. Measured fluorescence is directly proportionate to the number of viable cells. A comparison of the total fluorescence of a drug-treated cell population to the fluorescence of a similar number of untreated cells yields a survival fraction. In brief, 2000 to 10,000 cells/well (depending on size and growth rates) are replicate plated into 60 wells of a 96-well tissue culture plate in 0.1 mL of whole medium and allowed to attach overnight. Drug(s) are then added in 0.05 mL of whole medium to the final concentrations indicated. Drugs (fenretinide, and various chain length L-threo-sphinganines) were tested both as single agents and in a 3:1 ratio of fenretinide:sphinganine. C18-L-threo-sphinganine, or “safingol,” was also tested and results shown for reference. There are 12 wells treated per drug concentration. Twelve wells receive drug vehicle-only to the appropriate final concentration and serve as controls for the plate. Cells are incubated for 96 hours at 37° C. in ambient air with 5% CO2. Fluorescein diacetate is then added to each well in 0.05 mL media to a final concentration of 8 microgram/mL. Cells are incubated for a further 15 minutes at 37° C. and 0.03 mL of 0.5% eosin Y is added to each well. Total fluorescence of viable cells is then measured by digital imaging microscopy. Results were graphed as the ratio of the fluoresecence of drug-treated wells to non-drug treated control wells (i.e., Survival Fraction). All tests were performed at least twice. Representative results are shown.
(§2) The Combination Index (CI) is a term to describe mathematical modeling of the pharmacologic effects on cytotoxicity (cell death) of two drugs in combination based. Cytotoxic “synergy” is defined as a cell death affect which is greater than would be expected from a simple product of the single agent cytotoxicities alone (i.e. an “additive” effect). By Chou-Talalay analysis, a CI<0.9 on a Fraction Affected (“Fa”, i.e. fraction of cells killed) indicates synergy, with smaller numbers indicating greater synergy; a CI of 0.9-1.1 signifies an additive or near-additive effect; and a CI>1.1 means the drug combination is antagonistic.
Fenretinide and L-threo-sphinganines tested in human primitive neuroectodermal tumor (PNET) (brain cancer) cell line, CHLA-266.

[2] = system: NCI-H-1792 lung adenocarcinoma cell line; experiment: DIMSCAN cytotoxicity, fenretinide + L-threo-sphinganines 3:1 (Example B12); settings: 96 h
Experimental: as §1, §2
Fenretinide and L-threo-sphinganines tested in human lung adenocarcinoma (lung cancer) cell line, NCI-H-1792.

[3] = system: MCF-7 breast adenocarcinoma cell line; experiment: DIMSCAN cytotoxicity, fenretinide + L-threo-sphinganines 3:1 (Example B14); settings: 96 h
Experimental: as §1, §2
(§3) Fenretinide and L-threo-sphinganines tested in human breast adenocarcinoma (breast cancer) cell lines, MCF-7 and MDA-MB-231.

[4] = system: MDA-MB-231 breast adenocarcinoma cell line; experiment: as above; settings: MDA-MB-231, 20% O2, 96 h
Experimental: as §1, §2, §3

[5] = system: CHLA-266 brain cancer (PNET) cell line; experiment: DIMSCAN cytotoxicity dose-response with fenretinide (Examples A, FIGS. 2, 8, 13); settings: 2% oxygen, at one or more doses, +96 hrs
Experimental: Cytotoxicity Assay: Cytotoxicity in cell lines was determined using a fluorescence-based assay employing digital imaging microscopy (DIMSCAN)(after Fragala, et al, Mol Cancer Ther, 6:886-897, 2007). DIMSCAN quantitates viable cells which selectively accumulate fluorescein diacetate and is capable of measuring cytotoxicity over a 4-5 log dynamic range by quantifying total fluorescence per well (which is proportional to viable, clonogenic cells) after eliminating background fluorescence using digital thresholding and eosin Y quenching. Briefly, cell lines were seeded into 96-well plates in 100 µL of complete culture medium (10-20% serum) per well. Cells were incubated overnight in 2%, 5% or 20% oxygen (room air) prior to addition of drugs in […] volumes of complete medium to various final drug concentrations in replicates of 12 wells per concentration. In assays employing D-threo-PPMP, PPMP was employed at a fixed, minimally-toxic, final concentration of 10 μM in each well. Control wells received ethanol (final concentration=0.12%-0.20%) in complete medium equivalent to the maximum final ethanol concentration of drug-treated wells. Plates were incubated at various oxygen concentrations to simulate physiological hypoxia (i.e., 2% oxygen=typical solid tumor oxygen levels; 5%=bone marrow oxygen levels for leukemias; 20% room air=supraphysiological oxygen for comparison with typical laboratory culture conditions). Plates were assayed at 3-4 days after initiating drug exposure depending on the growth properties of each cell line, to allow for maximum cell death and outgrowth of surviving cells. To measure cytotoxicity, FDA (stock solution of 1 mg/ml in DMSO) was added, in 50 µL of complete medium per well, to a final concentration of 10 µg/ml. The plates were incubated for an additional 15-30 minutes at 37 C and then 30 µL of eosin Y (0.5% in normal saline) was added per well. Total fluorescence of each well was then measured using digital imaging microscopy. […]

[6] = system: MOLT-4 ALL leukemia cell line; experiment: DIMSCAN cytotoxicity dose-response with fenretinide, with or without D-threo-PPMP (Examples A, FIGS. 6, 24-26); settings: 2% oxygen, D-threo-PPMP fixed 10 uM, at most doses, +96 hrs
Experimental: Cytotoxicity Assay: Cytotoxicity in cell lines was determined using a fluorescence-based assay employing digital imaging microscopy (DIMSCAN)(after Fragala, et al, Mol Cancer Ther, 6:886-897, 2007). DIMSCAN quantitates viable cells which selectively accumulate fluorescein diacetate and is capable of measuring cytotoxicity over a 4-5 log dynamic range by quantifying total fluorescence per well (which is proportional to viable, clonogenic cells) after eliminating background fluorescence using digital thresholding and eosin Y quenching. Briefly, cell lines were seeded into 96-well plates in 100 µL of complete culture medium (10-20% serum) per well. Cells were incubated overnight in 2%, 5% or 20% oxygen (room air) prior to addition of drugs in […] volumes of complete medium to various final drug concentrations in replicates of 12 wells per concentration. In assays employing D-threo-PPMP, PPMP was employed at a fixed, minimally-toxic, final concentration of 10 μM in each well. Control wells received ethanol (final concentration=0.12%-0.20%) in complete medium equivalent to the maximum final ethanol concentration of drug-treated wells. Plates were incubated at various oxygen concentrations to simulate physiological hypoxia (i.e., 2% oxygen=typical solid tumor oxygen levels; 5%=bone marrow oxygen levels for leukemias; 20% room air=supraphysiological oxygen for comparison with typical laboratory culture conditions). Plates were assayed at 3-4 days after initiating drug exposure depending on the growth properties of each cell line, to allow for maximum cell death and outgrowth of surviving cells. To measure cytotoxicity, FDA (stock solution of 1 mg/ml in DMSO) was added, in 50 µL of complete medium per well, to a final concentration of 10 µg/ml. The plates were incubated for an additional 15-30 minutes at 37 C and then 30 µL of eosin Y (0.5% in normal saline) was added per well. Total fluorescence of each well was then measured using digital imaging microscopy.
FIGS. 1 to 26 illustrate the effect (Examples A1 through A26) of the claimed invention and were carried out using the procedures disclosed herein.

[7] = 4-HPR 1.5 μM + L-threo-sphinganine 0.5 μM
[8] = 4-HPR 3 μM + L-threo-sphinganine 1 μM
[9] = 4-HPR 6 μM + L-threo-sphinganine 2 μM
[10] = 4-HPR 9 μM + L-threo-sphinganine 3 μM

Compound	CI (Combination Index) [1, 7]	Fa (fraction affected) [1, 7]	CI (Combination Index) [1, 8]	Fa (fraction affected) [1, 8]	CI (Combination Index) [1, 9]	Fa (fraction affected) [1, 9]	CI (Combination Index) [1, 10]	Fa (fraction affected) [1, 10]	CI (Combination Index) [2, 7]	Fa (fraction affected) [2, 7]	CI (Combination Index) [2, 8]	Fa (fraction affected) [2, 8]	CI (Combination Index) [2, 9]	Fa (fraction affected) [2, 9]	CI (Combination Index) [2, 10]	Fa (fraction affected) [2, 10]	CI (Combination Index) [3, 7]	Fa (fraction affected) [3, 7]	CI (Combination Index) [3, 8]	Fa (fraction affected) [3, 8]	also measured
CCCCCCCCC[C@H](O)[C@@H](N)CO [C12]	0.6	0.464	0.6	0.788	0.7	0.951	1.0	0.965	1.0	0.217	1.3	0.642	1.4	0.951	1.8	0.975	1.0	0.217	1.0	0.642	CI (Combination Index) [3, 9]: 0.9; Fa (fraction affected) [3, 9]: 0.951; CI (Combination Index) [3, 10]: 1.2; Fa (fraction affected) [3, 10]: 0.975; CI (Combination Index) [4, 7]: 1.5; Fa (fraction affected) [4, 7]: 1E−07; CI (Combination Index) [4, 8]: 0.9; Fa (fraction affected) [4, 8]: 0.052; CI (Combination Index) [4, 9]: 1.6; Fa (fraction affected) [4, 9]: 0.272; CI (Combination Index) [4, 10]: 2.0; Fa (fraction affected) [4, 10]: 0.720
CCCCCCCCCCC[C@H](O)[C@@H](N)CO [C14]	0.6	0.342	0.9	0.739	1.1	0.968	1.6	0.974	–	–	–	–	–	–	–	–	–	–	–	–	–
CCCCCCCCCCCC[C@H](O)[C@@H](N)CO [C15]	0.5	0.657	1.0	0.701	1.2	0.906	0.4	0.999	–	–	–	–	–	–	–	–	–	–	–	–	–
CCCCCCCCCCCCCCC[C@H](O)[C@@H](N)CO [C18, (2S,3S)-2-amino-1,3-octadecanediol, reference compound]	0.5	0.604	0.8	0.880	1.1	0.984	1.5	0.989	1.2	0.243	0.8	0.756	0.6	0.983	0.4	0.999	1.2	0.243	0.6	0.756	CI (Combination Index) [3, 9]: 0.9; Fa (fraction affected) [3, 9]: 0.824; CI (Combination Index) [3, 10]: 0.6; Fa (fraction affected) [3, 10]: 0.961; CI (Combination Index) [4, 7]: 1.8; Fa (fraction affected) [4, 7]: 0.088; CI (Combination Index) [4, 8]: 1.8; Fa (fraction affected) [4, 8]: 0.207; CI (Combination Index) [4, 9]: 1.3; Fa (fraction affected) [4, 9]: 0.597; CI (Combination Index) [4, 10]: 0.7; Fa (fraction affected) [4, 10]: 0.922
CCCCCCCCCCCCCCCC[C@H](O)[C@@H](N)CO [C19, (2S,3S)-2-amino-1,3-nonadecanediol]	–	–	–	–	–	–	–	–	1.1	0.138	1.1	0.736	1.2	0.965	0.9	0.993	1.2	0.138	0.8	0.736	CI (Combination Index) [3, 9]: 0.8; Fa (fraction affected) [3, 9]: 0.965; CI (Combination Index) [3, 10]: 0.9; Fa (fraction affected) [3, 10]: 0.991; CI (Combination Index) [4, 7]: 1.2; Fa (fraction affected) [4, 7]: 0.078; CI (Combination Index) [4, 8]: 1.2; Fa (fraction affected) [4, 8]: 0.195; CI (Combination Index) [4, 9]: 1.1; Fa (fraction affected) [4, 9]: 0.503; CI (Combination Index) [4, 10]: 0.7; Fa (fraction affected) [4, 10]: 0.909; C.I. (Combination Index) with fenretinide [5]: < 1; C.I. of D-threo-PPMP with fenretinide+L-threo-sphinganine (three drug combination) [6]: < 1
CCCCCCCCCCCCCCCCC[C@H](O)[C@@H](N)CO [C20, (2S,3S)-2-amino-1,3-icosanediol]	–	–	–	–	–	–	–	–	0.9	0.287	0.7	0.852	0.7	0.972	0.5	0.998	0.8	0.287	0.4	0.852	CI (Combination Index) [3, 9]: 0.3; Fa (fraction affected) [3, 9]: 0.971; CI (Combination Index) [3, 10]: 0.1; Fa (fraction affected) [3, 10]: 0.998; CI (Combination Index) [4, 7]: 2.0; Fa (fraction affected) [4, 7]: 0.011; CI (Combination Index) [4, 8]: 1.1; Fa (fraction affected) [4, 8]: 0.190; CI (Combination Index) [4, 9]: 1.3; Fa (fraction affected) [4, 9]: 0.583; CI (Combination Index) [4, 10]: 1.8; Fa (fraction affected) [4, 10]: 0.664; C.I. (Combination Index) with fenretinide [5]: < 1; C.I. of D-threo-PPMP with fenretinide+L-threo-sphinganine (three drug combination) [6]: < 1
